Source: patent publication US6858647B2, “Retinoid compounds suited for antibacterial applications” (Galderma Research & Development S.N.C., priority 2000, dated 2005)
Values after ≈ are worked out from the molar mass of the structure shown. Like-named read-outs stand apart in the source and are kept apart here.

Legend:
[1] = tested on: Staphylococcus aureus CIP52.1; test: Minimum inhibitory concentration (MIC), NCCLS dilution antimicrobial susceptibility test; format: cell-based; conditions: mean of at least three tests, read-out: MIC RESULTS MEAN
Text: The bacterium Staphylococcus aureus CIP52.1 may be used in order to determine for each test compound the minimum inhibitory concentration for the bacterium, or MIC, expressed in μM.
The technique employed to determine the minimum inhibitory concentration or MIC was that described in the publication entitled “National committee for clinical laboratory standards” Vol. 13, No. 25, December 1993; Methods for dilution antimicrobial susceptibility tests for bacteria that grow aerobically-third edition, approved standard”. This minimum inhibitory concentration gives an indication as to the bacteriostatic effect of the test compounds, i.e., the capacity of these compounds to stop the proliferation of the bacterium.
Each compound of the invention was tested at least three times. The average of the test results was calculated, along with the standard deviation. The reference compound used was gentamycin.
The technique employed to determine the MIC values was the same as that described in Example 1.
(§1) Each compound of the invention and each comparative example taken from the Pierre Fabre patent application No. FR-2,736,548 was tested at least three times. The mean of the test results was calculated, along with the standard deviation. The reference compound used was gentamycin.

[2] = tested on: bacterium Staphylococcus aureus; test: Minimum bactericidal concentration (MBC); format: cell-based; conditions: Table IV, Example 2, mean of at least three tests, bactericidal activity (MBC)
Method: The technique employed to determine the minimum bactericidal concentration, or MBC, was that described in Bactéricidie, P. Courvalin et al., Editions Maloine, 1990, chapter 7, page 335.
This minimum bactericidal concentration provides an indication as to the bactericidal effect of the test compounds, i.e., the capacity of these compounds to kill the bacterium.
as §1

[3] = tested on: RAR receptor; test: Biological activity of RAR receptor antagonist / agonist type; conditions: stated in words, no test described
[4] = Table III, Example 2, comparison with retinaldehydes
[5] = Staphylococcus aureus, CIP52, Table II, Example 1, bacteriostatic effect
[6] = Table II, Example 1, bacteriostatic effect
[7] = Staphylococcus aureus, CIP52, Table III, Example 2, comparison with retinaldehydes

Molecule | MIC [1, 5] [µM] | biological activity at RAR receptor (antagonist or agonist type) [3] | MIC [1, 6] [µM] | other results
CC1=C(/C=C/C(C)=C/C=C/C(C)=C\C=O)C(C)(C)CCC1 [Comparative Example 3, 13-cis-retinaldehyde, reference compound] |  |  |  | MIC [1, 4]: 7.64 µM (≈ 2.17 µg/mL); MIC [2]: 15.97 µM (≈ 4.54 µg/mL)
CC1(C)CCC(C)(C)c2cc3sc(-c4ccc(C(=O)O)cc4)cc3cc21 [Compound 15, 4-(5,5,8,8-Tetramethyl-5,6,7,8-tetrahydronaphtho-[2,3-b]thiophen-2-yl)benzoic acid] | 2.5 (≈ 0.911 µg/mL) | RAR receptor agonist type |  | 
CC1(C)CCSc2ccc(-c3cc(-c4ccc(C(=O)O)cc4)ccc3-c3ccccc3)cc21 [Compound 13, 2′-(4,4-Dimethylthiochroman-6-yl) [1,1′,4′,1″]terphenyl-4″-carboxylic acid] |  | RAR receptor agonist type | 2.08 (≈ 0.937 µg/mL) | 
CC1(C)CCC(C)(C)c2cc(-c3cc(-c4ccc(C(=O)O)cc4)ccc3-c3ccc(O)cc3)ccc21 [Compound 9, 4-Hydroxy-2′(5,5,8,8-tetramethyl-5,6,7,8-tetrahydronaphthalen-2-yl) [1,1′,4′,1″]terphenyl-4″-carboxylic acid] |  | RAR receptor agonist type | 1.66 (≈ 0.791 µg/mL) | 
COCOc1cccc(C=CC#Cc2ccc(C(=O)O)cc2)c1-c1ccc(C)cc1 [Compound 2, 4-[4-(6-Methoxymethoxy-4′-methylbiphenyl-2-yl)but-3-en-1-ynyl]benzoic acid] | 1.04 (≈ 0.414 µg/mL) | RAR receptor antagonist type |  | MIC [1, 7]: 2.45 µM (≈ 0.976 µg/mL); MIC ([2]; Staphylococcus aureus): 16.6 µM (≈ 6.63 µg/mL)
COc1cccc(-c2ccc(C)cc2)c1C=CC#Cc1ccc(C(=O)O)cc1 [Compound 32, 4-[4-(3-Methoxy-4′-methylbiphenyl-2-yl)but-3-en-1-ynyl]benzoic acid] | 3.33 (≈ 1.23 µg/mL) | RAR receptor antagonist type |  | 
CC1=C(/C=C/C(C)=C\C=C\C(C)=C\C=O)C(C)(C)CCC1 [Comparative Example 2, 9-cis-retinaldehyde, reference compound] |  |  |  | MIC [1, 4]: 11.52 µM (≈ 3.28 µg/mL); MIC [2]: 16.63 µM (≈ 4.73 µg/mL)
Cc1ccc(-c2ccccc2C=CC#Cc2ccc(C(=O)O)cc2)cc1 [Compound 37, 4-[4-(4′-Methylbiphenyl-2-yl)but-3-en-1-ynyl]benzoic acid] | 4.16 (≈ 1.41 µg/mL) | RAR receptor antagonist type |  | 
COCOc1ccc(/C=C/C#Cc2ccc(C(=O)O)cc2)c(-c2ccc(C)cc2)c1 [Compound 31, (E)-4-[4-(5-Methoxymethoxy-4′ -methylbiphenyl-2-yl)but-3-en-1-ynyl]benzoic acid] | 3.33 (≈ 1.33 µg/mL) | RAR receptor antagonist type |  | 
COc1c(O)cc(-c2ccc3cc(C(=O)O)ccc3c2)cc1C12CC3CC(CC(C3)C1)C2 [Compound 1, 6-[3-(1-Adamantyl)-4-methoxy-5-hydroxyphenyl]-2-naphthoic acid] | 1.04 (≈ 0.446 µg/mL) | RAR receptor agonist type |  | MIC [1, 7]: 1.3 µM (≈ 0.557 µg/mL); MIC ([2]; Staphylococcus aureus): 12.5 µM (≈ 5.36 µg/mL)
CCCc1ccc(-c2ccccc2C=CC#Cc2ccc(C(=O)O)cc2)cc1 [Compound 21, 4-[4-(4′-Propylbiphenyl-2-yl)but-3-en-1-ynyl]benzoic acid] | 2.5 (≈ 0.916 µg/mL) | RAR receptor antagonist type |  | 
COCOc1ccccc1-c1ccc(-c2ccc(C(=O)O)cc2)cc1-c1ccc2c(c1)C(C)(C)CCC2(C)C [Compound 34, 2-Methoxymethoxy-2′-(5,5,8,8-tetramethyl-5,6,7,8-tetrahydronaphthalen-2-yl) [1,1′,4′1″]terphenyl-4″carboxylic acid] |  | RAR receptor antagonist type | 3.33 (≈ 1.73 µg/mL) | 
O=C(O)c1ccc2cc(-c3cc(Br)c(O)c(C45CC6CC(CC(C6)C4)C5)c3)ccc2c1 [Compound 11, 6-(3-Adamantan-1-yl-5-bromo-4-hydroxyphenyl)-naphthalene-2-carboxylic acid] | 2.08 (≈ 0.993 µg/mL) | RAR receptor agonist type |  | 
CC1=C(/C=C/C(C)=C/C=C/C(C)=C/C=O)C(C)(C)CCC1 [Comparative Example 1, all-trans-retinaldehyde, reference compound] |  |  |  | MIC [1, 4]: 11.64 µM (≈ 3.31 µg/mL); MIC [2]: 26.33 µM (≈ 7.49 µg/mL)
CC1(C)CCC(C)(C)c2cc(-c3cc(-c4ccc(C(=O)O)cc4O)ccc3-c3ccccc3)ccc21 [Compound 10, 2″-Hydroxy-2′-(5,5,8,8-tetramethyl-5,6,7,8-tetrahydronaphthalen-2-yl) [1,1′,4′,1″]terphenyl-4″-carboxylic acid] |  | RAR receptor agonist type | 1.66 (≈ 0.791 µg/mL) | 
CC1(C)CCC(C)(C)c2cc(-c3cc(-c4ccc(C(=O)O)cc4)ccc3-c3ccccc3)c(O)cc21 [Compound 14, 2′-(3-Hydroxy-5,5,8,8-tetramethyl-5,6,7,8-tetrahydronaphthalen-2-yl) [1,1′,4′,1″]terphenyl-4″-carboxylic acid] |  | RAR receptor agonist type | 2.08 (≈ 0.991 µg/mL) | 
CC(C)(C)C1=CC(=CC#Cc2ccc(C(=O)O)cc2)C=C(C(C)(C)C)C1=O [Compound 5, 4-[3-(3,5-Di-tert-butyl-4-oxocyclohexa-2,5-dienylidene)prop-1-ynyl]benzoic acid] | 1.25 (≈ 0.453 µg/mL) | RAR receptor agonist type |  | MIC [1, 7]: 3.3 µM (≈ 1.2 µg/mL); MIC ([2]; Staphylococcus aureus): 13.2 µM (≈ 4.78 µg/mL)
COCCOCOc1cc2ccc(-c3ccc(C(=O)O)c(O)c3)cc2cc1C12CC3CC(CC(C3)C1)C2 [Compound 30, 4-[6-Methoxyethoxymethoxy-7-(1-adamantyl)-2-naphthyl] salicylic acid] | 3.33 (≈ 1.67 µg/mL) | RAR receptor antagonist type |  | 
gentamycin [reference compound] |  |  | 0.11 | MIC [1, 4]: 0.14 µM; MIC [2]: 0.26 µM
